# Experimental data as given in ChEMBL document CHEMBL3853268, “Thiosemicarbazone modification of 3-acetyl coumarin inhibits Aβ peptide aggregation and protect against Aβ-induced cytotoxicity” (Eur J Med Chem, 2016).
# Calls of active or inactive are those of the source. The calls are words filed in the database; no cut-off is given here.
# Legend:
# [1] = target: Amyloid-beta precursor protein (Homo sapiens) (UniProt P05067); assay: Inhibition of HFIP-induced amyloid beta (1 to 42 residues) (unknown origin) aggregation at 1:1 protein to compound ratio preincubated for 15 mins followed by HFIP addition measured after 40 mins by turbidity assay relative to control
# Chain of Amyloid-beta precursor protein (Homo sapiens) (P05067 whole entry, the tested form may be a part): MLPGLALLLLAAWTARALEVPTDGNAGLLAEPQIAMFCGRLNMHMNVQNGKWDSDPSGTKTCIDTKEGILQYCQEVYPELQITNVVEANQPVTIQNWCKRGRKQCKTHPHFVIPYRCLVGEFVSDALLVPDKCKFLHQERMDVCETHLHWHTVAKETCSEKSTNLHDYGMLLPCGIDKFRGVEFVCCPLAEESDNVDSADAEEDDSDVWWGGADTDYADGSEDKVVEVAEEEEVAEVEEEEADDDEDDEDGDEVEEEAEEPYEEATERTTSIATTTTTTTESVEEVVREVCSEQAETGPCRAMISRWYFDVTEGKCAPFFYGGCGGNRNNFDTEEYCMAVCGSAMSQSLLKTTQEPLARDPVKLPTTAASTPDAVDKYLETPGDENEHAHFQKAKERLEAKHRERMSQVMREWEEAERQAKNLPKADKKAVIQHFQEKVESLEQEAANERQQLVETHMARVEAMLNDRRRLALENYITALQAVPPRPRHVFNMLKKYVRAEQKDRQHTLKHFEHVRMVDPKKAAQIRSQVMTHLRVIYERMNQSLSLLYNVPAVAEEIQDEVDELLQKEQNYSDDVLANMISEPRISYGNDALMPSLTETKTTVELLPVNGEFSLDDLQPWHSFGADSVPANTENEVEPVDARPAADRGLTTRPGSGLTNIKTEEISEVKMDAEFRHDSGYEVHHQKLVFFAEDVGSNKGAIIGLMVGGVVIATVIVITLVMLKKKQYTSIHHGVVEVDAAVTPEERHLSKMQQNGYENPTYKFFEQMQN
# [2] = Cytotoxicity against human SH-SY5Y cells assessed as decrease in cell viability after 24 hrs by MTT assay; format: toxicity, cell-based
# [3] = target: Amyloid-beta precursor protein (Homo sapiens) (UniProt P05067); assay: Inhibition of HFIP-induced amyloid beta (1 to 42 residues) (unknown origin) aggregation at 1:0.75 protein to compound ratio preincubated for 15 mins followed by HFIP addition measured after 40 mins by ThT fluorescence assay
# [4] = target: Amyloid-beta precursor protein (Homo sapiens) (UniProt P05067); assay: Inhibition of HFIP-induced amyloid beta (1 to 42 residues) (unknown origin) aggregation at 1:1 protein to compound ratio preincubated for 15 mins followed by HFIP addition measured after 40 mins by silver staining-based native PAGE assay
# [5] = target: Amyloid-beta precursor protein (Homo sapiens) (UniProt P05067); assay: Inhibition of HFIP-induced amyloid beta (1 to 42 residues) (unknown origin) aggregation assessed as decrease in levels of higher aggregates at 1:1 protein to compound ratio preincubated for 15 mins followed by HFIP addition measured after 40 mins by silver staining-based native PAGE assay
# [6] = target: Amyloid-beta precursor protein (Homo sapiens) (UniProt P05067); assay: Inhibition of HFIP-induced amyloid beta (1 to 42 residues) (unknown origin) aggregation at 1:0.25 protein to compound ratio preincubated for 15 mins followed by HFIP addition measured after 40 mins by ThT fluorescence assay relative to control
# [7] = target: Amyloid-beta precursor protein (Homo sapiens) (UniProt P05067); assay: Inhibition of HFIP-induced amyloid beta (1 to 42 residues) (unknown origin) aggregation at 1:1 protein to compound ratio preincubated for 15 mins followed by HFIP addition measured after 40 mins by ThT fluorescence assay relative to control
# [8] = Neuroprotective activity against amyloid beta (1 to 42 residues)-induced toxicity in human SH-SY5Y cells assessed as cell viability at 5 to 20 uM after 3 days by MTT assay (reference value: 28%); format: functional
# [9] = target: Amyloid-beta precursor protein (Homo sapiens) (UniProt P05067); assay: Inhibition of HFIP-induced amyloid beta (1 to 42 residues) (unknown origin) aggregation at 1:1 protein to compound ratio preincubated for 15 mins followed by HFIP addition measured after 40 mins by ANS extrinsic fluorescence assay relative to control
# [10] = target: Amyloid-beta precursor protein (Homo sapiens) (UniProt P05067); assay: Inhibition of HFIP-induced amyloid beta (1 to 42 residues) (unknown origin) aggregation at 1:0.5 protein to compound ratio preincubated for 15 mins followed by HFIP addition measured after 40 mins by ThT fluorescence assay
inhibition [1] [%],inhibition [3],inhibition [4],inhibition [5],inhibition [6] [%],inhibition [7] [%],inhibition [9] [%],inhibition [10],SMILES,IC50 ([2]; sh-sy5y) [µM],Activity [8] [%],"IC50 at 24 h ([2]; human, SH-SY5Y cells) [µM]"
78,Active,Active,Active,53,80,86,Active,C/C(=N\NC(N)=S)c1cc2ccccc2oc1=O,≤ 185,95,
,,Active,,,,,,Oc1c(I)cc(Cl)c2cccnc12,,,
59,Active,Active,Active,40,50,40,Active,CC(=O)c1cc2ccccc2oc1=O [3-ACETYLCOUMARIN],,77,75
